{"source": "patent US4112228A", "about": "“7-(D-α-Hydroxy-2-arylacetamido)-3-(2-carboxyalkyl-2,3-dihydro-s-tri azolo-[4,3-b]pyridazin-3-on-6-ylthiomethyl)-3-cephem-4-carboxylic acids and derivatives” (priority 1977, dated 1978)", "key": {"P. stuartii": {"tested_on": "P. stuartii", "test": "MIC by Steers' agar dilution method", "conditions": "Providencia stuartii"}, "Shig. dysenteriae": {"tested_on": "Shig. dysenteriae", "test": "MIC by Steers' agar dilution method", "conditions": "Shigella dysenteriae, MHA"}, "Sal. enteritidis": {"tested_on": "Sal. enteritidis", "test": "MIC by Steers' agar dilution method", "conditions": "Salmonella enterica"}, "P. inconstans": {"tested_on": "P. inconstans", "test": "MIC by Steers' agar dilution method", "conditions": "Providencia alcalifaciens"}, "P. vulgaris A9436 (Pv-1)": {"tested_on": "P. vulgaris A9436 (Pv-1)", "test": "Standard experimental infection (single sc treatment)", "conditions": "for No. of survivors/No. tested: Run C-808, single sc"}, "[1]": {"test": "Blood levels in mice after subcutaneous administration", "format": "in vivo", "conditions": "mouse, read-out: Blood level; for concentration at 0.25 h: 15'; for concentration at 0.5 h: 30'; for concentration at 1 h: 60'; for concentration at 2 h: 120'", "description": "Groups of mice were administered subcutaneously graded doses of 40, 20 and 10 mg./kg.."}, "Shig. flexneri": {"tested_on": "Shig. flexneri", "test": "MIC by Steers' agar dilution method", "format": "cell-based", "conditions": "Shigella flexneri, MHA"}, "Klebsiella sp.": {"tested_on": "Klebsiella sp.", "test": "MIC by Steers' agar dilution method"}, "E. coli Juhl": {"tested_on": "E. coli Juhl", "test": "Standard experimental infection in mice", "format": "in vivo", "conditions": "Table 6"}, "Pr. vulgaris": {"tested_on": "Pr. vulgaris", "test": "MIC by Steers' agar dilution method", "conditions": "Proteus vulgaris"}, "[2]": {"tested_on": "P. mirabilis A9900 (Pm-2)", "test": "Standard experimental infection (single sc treatment)", "conditions": "for No. of survivors/No. tested: Run C-810, 1×10^3 LD50, single sc"}, "S. aureus Smith": {"tested_on": "S. aureus Smith", "test": "Standard experimental infection in mice", "format": "in vivo", "conditions": "Table 6"}}, "note": "Read-outs that look alike come from different tables or passages of the source."}
{"smiles": "Cn1nnnc1SCC1=C(C(=O)O)N2C(=O)[C@@H](NC(=O)[C@H](O)c3ccccc3)[C@H]2SC1", "note": "[Cefamandole, cefamandole, reference compound]", "values": [{"measurement": "MIC", "setting": "P. stuartii; Ps-1 A20745, HIA, Table 4", "value": 6.3, "unit": "µg/mL"}, {"measurement": "MIC", "setting": "P. stuartii; Ps-1 A20745, MHA, Table 3", "value": 0.8, "unit": "µg/mL"}, {"measurement": "MIC", "setting": "P. stuartii; Ps-1 A20745, MHA, Table 4", "value": 1.6, "unit": "µg/mL"}, {"measurement": "MIC", "setting": "P. stuartii; Ps-1 A20745, NA, Table 4", "value": 6.3, "unit": "µg/mL"}, {"measurement": "MIC", "setting": "P. stuartii; Ps-2 A20894, HIA, Table 4", "value": 0.4, "unit": "µg/mL"}, {"measurement": "MIC", "setting": "P. stuartii; Ps-2 A20894, MHA, Table 3", "value": 0.8, "unit": "µg/mL"}, {"measurement": "MIC", "setting": "P. stuartii; Ps-2 A20894, MHA, Table 4", "value": 0.2, "unit": "µg/mL"}, {"measurement": "MIC", "setting": "P. stuartii; Ps-2 A20894, NA, Table 4", "value": 0.4, "unit": "µg/mL"}, {"measurement": "MIC", "setting": "P. stuartii; Ps-3 A20911 (β-lactamase), HIA, Table 4", "value": 6.3, "unit": "µg/mL"}, {"measurement": "MIC", "setting": "P. stuartii; Ps-3 A20911 (β-lactamase), MHA, Table 4", "value": 3.1, "unit": "µg/mL"}, {"measurement": "MIC", "setting": "P. stuartii; Ps-3 A20911 (β-lactamase), NA, Table 4", "value": 6.3, "unit": "µg/mL"}, {"measurement": "MIC", "setting": "P. stuartii; Ps-3 A20911, MHA, Table 3", "value": 0.8, "unit": "µg/mL"}, {"measurement": "MIC", "setting": "P. stuartii; Ps-4 A21051, MHA, Table 3", "value": 25, "unit": "µg/mL"}, {"measurement": "MIC", "setting": "P. stuartii; Ps-5 A21057, MHA, Table 3", "value": 0.8, "unit": "µg/mL"}, {"measurement": "MIC", "setting": "Shig. dysenteriae; Example 10", "value": 0.1, "unit": "µg/mL"}, {"measurement": "MIC", "setting": "Shig. dysenteriae; Table 1", "value": 0.1, "unit": "µg/mL"}, {"measurement": "MIC", "setting": "Shig. dysenteriae; Sd-1, Table 3", "value": 0.2, "unit": "µg/mL"}, {"measurement": "MIC", "setting": "Sal. enteritidis; A9531, MHA, Table 1", "value": 0.1, "unit": "µg/mL"}, {"measurement": "MIC", "setting": "Sal. enteritidis; MHA, Example 10", "value": 0.05, "unit": "µg/mL"}, {"measurement": "MIC", "setting": "Sal. enteritidis; Se-1 A9531, MHA, Table 3", "value": 0.2, "unit": "µg/mL"}, {"measurement": "MIC", "setting": "P. inconstans", "value": 0.8, "unit": "µg/mL"}, {"measurement": "ED50", "setting": "P. vulgaris A9436 (Pv-1); Proteus vulgaris, in Mus musculus, sc, read-out: PD50", "value": 36, "unit": "mg/kg"}, {"measurement": "No. of survivors/No. tested", "setting": "P. vulgaris A9436 (Pv-1); 0.8 mg./kg.", "value": "0/5"}, {"measurement": "No. of survivors/No. tested", "setting": "P. vulgaris A9436 (Pv-1); 3.1 mg./kg.", "value": "0/5"}, {"measurement": "No. of survivors/No. tested", "setting": "P. vulgaris A9436 (Pv-1); 12.5 mg./kg.", "value": "1/5"}, {"measurement": "No. of survivors/No. tested", "setting": "P. vulgaris A9436 (Pv-1); 50 mg./kg.", "value": "3/5"}, {"measurement": "concentration at 0.25 h", "setting": "[1]; sc 10 mg./kg.", "value": 3800, "unit": "ng/mL"}, {"measurement": "concentration at 0.5 h", "setting": "[1]; sc 10 mg./kg.", "value": 1500, "unit": "ng/mL"}, {"measurement": "concentration at 1 h", "setting": "[1]; sc 10 mg./kg.", "value": 300, "unit": "ng/mL"}, {"measurement": "concentration at 2 h", "setting": "[1]; sc 10 mg./kg.", "value": 100, "unit": "ng/mL"}, {"measurement": "concentration at 0.25 h", "setting": "[1]; sc 20 mg./kg.", "value": 9500, "unit": "ng/mL"}, {"measurement": "concentration at 0.5 h", "setting": "[1]; sc 20 mg./kg.", "value": 4100, "unit": "ng/mL"}, {"measurement": "concentration at 1 h", "setting": "[1]; sc 20 mg./kg.", "value": 1000, "unit": "ng/mL"}, {"measurement": "concentration at 2 h", "setting": "[1]; sc 20 mg./kg.", "value": "< 100", "unit": "ng/mL"}, {"measurement": "concentration at 0.25 h", "setting": "[1]; sc 40 mg./kg.", "value": 18000, "unit": "ng/mL"}, {"measurement": "concentration at 0.5 h", "setting": "[1]; sc 40 mg./kg.", "value": 11000, "unit": "ng/mL"}, {"measurement": "concentration at 1 h", "setting": "[1]; sc 40 mg./kg.", "value": 3900, "unit": "ng/mL"}, {"measurement": "concentration at 2 h", "setting": "[1]; sc 40 mg./kg.", "value": 300, "unit": "ng/mL"}, {"measurement": "MIC", "setting": "Shig. flexneri; A9684, Table 1", "value": 6.3, "unit": "µg/mL"}, {"measurement": "MIC", "setting": "Shig. flexneri; Example 10", "value": 6.3, "unit": "µg/mL"}, {"measurement": "MIC", "setting": "Shig. flexneri; Sr-1 A9684, Table 3", "value": 3.1, "unit": "µg/mL"}, {"measurement": "MIC", "setting": "Klebsiella sp.; Kx-2 A9662, MHA, Table 3", "value": 1.6, "unit": "µg/mL"}, {"measurement": "MIC", "setting": "Klebsiella sp.; Kx-3 A20346 (β-lactamase), HIA, Table 4", "value": 0.4, "unit": "µg/mL"}, {"measurement": "MIC", "setting": "Klebsiella sp.; Kx-3 A20346 (β-lactamase), MHA, Table 4", "value": 0.4, "unit": "µg/mL"}, {"measurement": "MIC", "setting": "Klebsiella sp.; Kx-3 A20346 (β-lactamase), NA, Table 4", "value": 0.4, "unit": "µg/mL"}, {"measurement": "MIC", "setting": "Klebsiella sp.; Kx-3 A20346, MHA, Table 3", "value": 0.8, "unit": "µg/mL"}, {"measurement": "No. of survivors/No. tested", "setting": "E. coli Juhl; 0.4 mg./kg.", "value": "0/5"}, {"measurement": "No. of survivors/No. tested", "setting": "E. coli Juhl; 1.6 mg./kg.", "value": "2/5"}, {"measurement": "No. of survivors/No. tested", "setting": "E. coli Juhl; 6.3 mg./kg.", "value": "5/5"}, {"measurement": "No. of survivors/No. tested", "setting": "E. coli Juhl; 25 mg./kg.", "value": "5/5"}, {"measurement": "ED50", "setting": "E. coli Juhl; Escherichia coli, read-out: PD50", "value": 1.8, "unit": "mg/kg"}, {"measurement": "MIC", "setting": "Pr. vulgaris; A9436, MHA, Table 1", "value": 0.4, "unit": "µg/mL"}, {"measurement": "MIC", "setting": "Pr. vulgaris; A9699, MHA, Table 1", "value": 6.3, "unit": "µg/mL"}, {"measurement": "MIC", "setting": "Pr. vulgaris; ATCC9920, Pv-4 ATCC 9920, MHA, Table 3", "value": 0.2, "unit": "µg/mL"}, {"measurement": "MIC", "setting": "Pr. vulgaris; Pv-1 A9436, HIA, Table 4", "value": 0.4, "unit": "µg/mL"}, {"measurement": "MIC", "setting": "Pr. vulgaris; Pv-1 A9436, MHA, Table 3", "value": 0.8, "unit": "µg/mL"}, {"measurement": "MIC", "setting": "Pr. vulgaris; Pv-1 A9436, MHA, Table 4", "value": 0.4, "unit": "µg/mL"}, {"measurement": "MIC", "setting": "Pr. vulgaris; Pv-1 A9436, NA, Table 4", "value": 0.2, "unit": "µg/mL"}, {"measurement": "MIC", "setting": "Pr. vulgaris; Pv-2 A9526, MHA, Table 3", "value": 1.6, "unit": "µg/mL"}, {"measurement": "MIC", "setting": "Pr. vulgaris; Pv-3 A9699 (β-lactamase), HIA, Table 4", "value": 100, "unit": "µg/mL"}, {"measurement": "MIC", "setting": "Pr. vulgaris; Pv-3 A9699 (β-lactamase), MHA, Table 4", "value": 50, "unit": "µg/mL"}, {"measurement": "MIC", "setting": "Pr. vulgaris; Pv-3 A9699 (β-lactamase), NA, Table 4", "value": 6.3, "unit": "µg/mL"}, {"measurement": "MIC", "setting": "Pr. vulgaris; Pv-3 A9699, MHA, Table 3", "value": 50, "unit": "µg/mL"}, {"measurement": "MIC", "setting": "Pr. vulgaris; Pv-5 A9539, MHA, Table 3", "value": "> 100", "unit": "µg/mL"}, {"measurement": "MIC", "setting": "Pr. vulgaris; Pv-6 A9716, MHA, Table 3", "value": 0.8, "unit": "µg/mL"}, {"measurement": "MIC", "setting": "Pr. vulgaris; Pv-7 A21240, MHA, Table 3", "value": "> 100", "unit": "µg/mL"}, {"measurement": "MIC", "setting": "Pr. vulgaris; strain not given (1st of 2), MHA, Example 10", "value": 0.2, "unit": "µg/mL"}, {"measurement": "MIC", "setting": "Pr. vulgaris; strain not named (2nd of 2), MHA, Example 10", "value": 50, "unit": "µg/mL"}, {"measurement": "ED50", "setting": "[2]; Proteus mirabilis, in Mus musculus, sc, read-out: PD50", "value": 50, "unit": "mg/kg"}, {"measurement": "No. of survivors/No. tested", "setting": "[2]; 0.2 mg./kg.", "value": "0/5"}, {"measurement": "No. of survivors/No. tested", "setting": "[2]; 0.8 mg./kg.", "value": "0/5"}, {"measurement": "No. of survivors/No. tested", "setting": "[2]; 3.1 mg./kg.", "value": "0/5"}, {"measurement": "No. of survivors/No. tested", "setting": "[2]; 12.5 mg./kg.", "value": "1/5"}, {"measurement": "No. of survivors/No. tested", "setting": "[2]; 50 mg./kg.", "value": "2/5"}, {"measurement": "No. of survivors/No. tested", "setting": "S. aureus Smith; 0.4 mg./kg.", "value": "1/5"}, {"measurement": "No. of survivors/No. tested", "setting": "S. aureus Smith; 1.6 mg./kg.", "value": "5/5"}, {"measurement": "No. of survivors/No. tested", "setting": "S. aureus Smith; 6.3 mg./kg.", "value": "5/5"}, {"measurement": "No. of survivors/No. tested", "setting": "S. aureus Smith; 25 mg./kg.", "value": "5/5"}, {"measurement": "ED50", "setting": "S. aureus Smith; Staphylococcus aureus, read-out: PD50", "value": 0.6, "unit": "mg/kg"}]}
